Measured values: patent publication US7745465B2, “Method of enhancing cellular production of molecular chaperone, hydroxylamine derivatives useful for enhancing the chaperone production and the preparation thereof” (CytRx Corporation, priority 1995, dated 2010)

Legend:
Hsp90 = experiment: Western blot of hsp90 in heat shocked H9c2 cells; type: cell-based, rat
Method: (§1) Experiments set forth in this section were conducted to determine whether N-[2-hydroxy-3-(1-piperidinyl)propoxy]-3-pyridinecarboximidoyl chloride maleate acts to increase the expression of molecular chaperon by a cell. The accumulation of different heat shock proteins subsequent to a period of exposure to heat shock alone, and to heat shock in combination with N-[2-hydroxy-3-(1-piperidinyl)propoxy]-3-pyridinecarboximidoyl chloride maleate administration, was examined by adding 10^−5 M of N-[2-hydroxy-3-(1-piperidinyl)propoxy]-3-pyridinecarboximidoyl chloride maleate before, during, or immediately after hyperthermic treatment of heart myogenic cells (H9c2 cells).
(§2) The embryonic rat heart-derived cell line H9c2 was obtained from European Collection of Animal cell Cultures (ECACC) (88092904). The cells were maintained at 37° C. in Dulbecco's modified Eagle's medium (DMEM) supplemented with 10% fetal calf serum (GIBCO) in JOUAN C02 thermostat (5% CO2).
Heat shock was performed at 43° C. in CO2 thermostat for the given time intervals (20, 40, 60, 90 and 120 min.). Cells were then taken back to 37° C. for 6 hours and proteins were extracted for SDS-PAGE. […]
(§3) Protein concentration was determined from 5:1 samples by the Bradford assay (M. M. Braford, Anal. Biochem., 72: 248-254 (1976)) in three parallel. […]

Hsp60 = experiment: Western blot of hsp60 in heat shocked H9c2 cells; type: cell-based, rat
Method: as §1, §2
Heat shock was performed at 43° C. in CO2 thermostat for the given time intervals (20, 40, 60, 90 and 120 min.). Cells were then taken back to 37° C. for 6 hours and proteins were extracted for SDS-PAGE. When N-[2-hydroxy-3-(1-piperidinyl)propoxy ]-3-pyridinecarboximidoyl chloride maleate was added before heat shock. 10^−5 M N-[2-hydroxy-3-(1-piperidinyl)propoxy]-3-pyridinecarboximidoyl chloride maleate was administered for 16 hours before the stress. In other set of experiments, N-[2-hydroxy-3-(1-piperidinyl)propoxy]-3-pyridinecarboximidoyl chloride maleate was added in 10^−5 M concentration right after heat stress, during the 6 hours recovery period. The experiments were repeated three times.
For SDS-P AGE, cells were grown in 6 cm Petri dishes. The amount of the cells at the start of the experiment was 8×10^5 and were still suconfluent when proteins were extracted. After the 6 hours recovery cells were washed two times in PBS then scrapped from the surface of the dishes in PBS. […]
as §3

SPRD male rats = experiment: Cardiac ischemia (LAD occlusion 5 min, reperfusion 10 min): ventricular tachycardia, fibrillation, survival; type: in vivo, rat
Method: Experiments were carried out in SPRD male rats. The animals were anaesthetized with Nembutal in a dose of 60 mg/kg/i.p. After opening the chest and pericardium, the LAD coronary artery was occluded for 5 minutes and then the incidence and duration of ventricular tachycardia and fibrillation in the reperfusion period (10 minutes) were investigated. Tissue samples were collected from the left and right ventricles.

[1] = test system: H9c2 rat heart muscle cell; experiment: Serum deprivation, cell viability by MTT test (H9c2); type: cell-based; conditions: serum deprived H9c2, 10^−5 M, control 100%, serum deprived alone 50.5%, read-out: relative cell viability
Method: Experiments were carried out using WEH1 mouse fibrosarcoma and H9c2 rat heart muscle cell lines divided into three groups: • control (10% FCS fetal calf serum) • serum deprived • N-[2-hydroxy-3-(1-piperidinyl)propoxy]-3-pyridinecarboximidoyl chloride maleate (10^−5 M) treated and serum deprived 1.2(i) Serum Deprivation and MTT Test
We have screened various cell lines, drug concentrations, pretreatment and deprivation times and we have found the most appropriate conditions as follows: […] H9c2 rat heart muscle cell (n=6) and WEHI mouse fibrosarcoma cell (n=7) have been plated on 24 well plates in 10% FCS DMEM (Dulbecco modified Eagle's medium) and incubated for 2 hours at 37 C, 5% CO2. Medium has been discarded and replaced by 10% FCS DMEM containing 10^−5 M N-[2-hydroxy-3-(1-piperidinyl)propoxy ]-3-pyridinecarboximidoyl chloride maleate. […] Cell viability was measured by MTT test based on the method of Plumb et al. (Cancer Res. 49: 4435-4444 (1989)) The tetrazolium salt method involving conversion of MTT (3-(4,5-dimethylthiazol-2yl)-2,5-diphenyltetrazolium bromide) to colored formazan by alive cells, served as an indirect measurement of cell viability. […] O.D. of the plates was read at 570 nm on an ELISA plate reader (Labsystems Multiskan Biochromatic type:348). […] Relative cell viability was calculated defining control group as 100%.

[2] = 0.5-, 0.75-, 1.0 mg/kg i.v. 5 min. before the occlusion

O=C(O)/C=C\C(=O)O.OC(CON=C(Cl)c1cccnc1)CN1CCCCC1 (stereo not drawn) [N-[2-hydroxy-3-(1-piperidinyl)-propoxy]3-pyridinecarboximidoyl chloride maleate]
level of Hsp90 increased (Hsp90; added before the heat stress, 20 min. heat treatment): about fivefold
effect on HSP90 level (Hsp90; added following 43° C. 60 min. treatment): as effective (if not more) as if added before high temperature stress
amount of hsp60 increased (compared to 37° C. control) (Hsp60; 10^−5 M added 16 hours before heat stress, 20 min. heat treatment at 43° C.): about fivefold
effect on the level of hsp60 (Hsp60; added during the recovery phase): also effective though to a significantly lesser extent
effect on the level of hsp60 (Hsp60; treatment at 37° C., no heat shock): no measurable effect
survival of reperfusion after the 5 min. occlusion (SPRD male rats; 100 mg/kg p.o., all control animals (n=6) died): survived the reperfusion
mean duration of ventricular tachycardia (SPRD male rats; [2]): reduced significantly
survival rate (preventing ventricular fibrillation) (SPRD male rats; [2]): improved the survival rate
viability at 10 µM [1]: 82.8%
